US8168644B2, “Quinazolinone derivatives as tubulin polymerization inhibitors” (Janssen Pharmaceutica NV, priority 2008, dated 2012)

Legend:
[1] = tested on: α-β-Tubulin; assay: α-β-Tubulin polymerization assay; type: biochemical; design: key: a compound showing 0 to 50% inhibition at 20 μM is reported as score 1; Score 2 compounds are defined as compound showing more than 50% inhibition at 20 μM and less than 50% inhibition at 5 μM; a compound showing more than 50% inhibition at 5 μM is reported as score 3; settings: inhibition of polymerization at 20 μM and 5 μM, reported as score
Description: The tubulin polymerization assay is an adaptation of an assay originally described by Bonne, D. et al. (J. Biol. Chem., 1985, 260:2819-25). The assay kit was purchased from Cytoskeleton, Inc. (catalogue number BK011) and the assay was performed as described by the supplier with the following modifications. The assay was run in a 384-well black Proxiplate (Perkin Elmer) and volumes were adapted accordingly. The reactions were carried out in a final volume of 10 μl. Compounds were added to 25 μl of the reaction mix in 96-well PP plates (Corning) on ice and 10 μl of this mixture was dispensed into duplicates of the 384-well Proxiplates pre-warmed to 37° C. in a Fluoroskan Ascent plate reader (Thermo Scientific). Fluorescence measurements were taken every minute for one hour. The maximum slope of each well was determined (linear regression through 4 consecutive points) and polymerization was calculated as a percentage of polymerization observed in the absence of compound. Compounds were first measured at a concentration of 20 μM and then at 5 μM for those showing more than 50% inhibition at 20 μM as compared to the polymerization observed in the absence of compound. Results are reported in Table F-2 as scores defined as: a compound showing 0 to 50% inhibition at 20 μM is reported as score 1; a compound showing more than 50% inhibition at 5 μM is reported as score 3.

[2] = tested on: human prostate cancer PC3 cells; assay: Eb1 cellular assay (Eb1 Comet assay); type: cell-based; settings: 1 hour treatment, LAC = concentration where Eb1 foci absent in at least 50% of treated cells
Description: The Eb1 Comet assay relies on the detection of the Eb1 protein at the plus end of polymerizing microtubules (Mimori-Kiyosue, 2000) using indirect immunofluorescence. Disruption of microtubule dynamics through de-polymerization or stabilization results in a de-localization of Eb1 from the growing microtubule ends and this is visualized by the disappearance of Eb1 containing cytoplasmic foci.
Briefly, human prostate cancer PC3 cells obtained from the American Type Culture Collection were grown in 96-well plates (Greiner, cat. no. 655090) in HAM's F12 medium as recommended by the provider (ATCC). The cells were treated for 1 hour at 37° C. with compounds dissolved in DMSO (0.6% final DMSO concentration). The culture medium was then removed by aspiration and the cells were fixed by adding cold methanol (−20° C.). After a 15 minutes incubation at −20° C., the cells were washed twice with DPBS (Gibco) containing 0.5% Triton X-100. Mouse Eb1 antibody (BD Transduction Laboratories, cat. no. 610534) was added to the cells (1/250 dilution in DPBS containing 1% BSA) and incubated overnight at room temperature. The antibody was subsequently removed and the cells washed twice with DPBS, 0.5% Triton X-100. Secondary goat anti-mouse antibody conjugated to Alexa 488 fluorescent dye (Molecular Probes) was added at a 1/500 dilution in DPBS, 1% BSA and incubated for 1 hour at 37° C. The cells were washed twice with DPBS, 0.5% Triton X-100 and then DPBS containing 0.5% Triton X-100 and 1/5000 Hoechst 33342 (Molecular Probes) was added. Microscopy based Eb1 foci visualization was carried out using an IN Cell Analyser 1000 (Amersham Biosciences) using a 20× objective. Compound dependent microtubule disruption was visually determined by the disappearance in Eb1 foci. The lowest active concentration (LAC) was determined as the concentration where Eb1 foci were absent in at least 50% of the treated cells. Herein the effects of test compounds are expressed as pLAC (the negative log value of the LAC-value) (see Table 3).

[3] = tested on: Human prostate cancer PC-3 cells; assay: Anti-proliferative effect, Alamar Blue assay, PC-3; type: cell-based; design: key to PC3 antiproliferative activity pIC50: pIC50 = negative log of IC50 (conc. reducing growth to 50% of control); settings: 4-day incubation; for IC50: Homo sapiens, 96 h, read-out: PC3 antiproliferative activity pIC50 (converted)
Description: Human prostate cancer PC-3 cells obtained from the ATCC were cultured in HAM'S F12 medium supplemented with 1 mM Sodium Pyruvate, 1.5 g/L Sodium Bicarbonate, 50 μg/ml gentamicin, non-essential amino acids and 10% fetal calf serum.
(§1) Resazurin was purchased from Aldrich (Prod. No. 199303). Potassium ferrocyanide, potassium ferricyanide, KH2PO4 and K2HPO4 were purchased from Sigma (Prod. Nos. P9387, P8131, P5655 and P8281, respectively).
(§2) Potassium Phosphate Buffer 0.1 M (PPB) was made as follows: 2.72 gram KH2PO4 and 13.86 gram K2HPO4 were dissolved in 500 ml milli-Q H2O, the pH was adjusted to pH 7.4 and the volume was brought to 1 liter with milli-Q H2O; the buffer was filter sterilised and stored at room temperature. Resazurin stock solution (PPB-A) was prepared fresh by dissolving 45 mg resazurin in 15 ml PBS. 30 mM potassium ferricyanide (PPB-B) was prepared by dissolving 0.987 gram potassium ferricyanide in 100 ml PPB. 30 mM potassium ferrocyanide (PPB-C) was prepared by dissolving 1.266 gram potassium ferrocyanide in 100 ml PPB.
(§3) Mixture of PPB-A, PPB-B and PPB-C was prepared by mixing equal volumes of the respective solutions. Resazurin work solution (herein termed “Alamar Blue” solution) was prepared by diluting said mixture 20× (vol/vol) in PPB and filter sterilising; the Alamar Blue solution could be kept at 4° C. for a maximum of 2 weeks.
(§4) For experiments in 384 wells plates the cells were seeded at a density of 4.5×10^3 cells/ml in Falcon 384-well culture plates (Life Technologies, Merelbeke, Belgium), black with clear bottom, in 45 μl culture medium. Cells were allowed to adhere to plastic for 24 hours. The tested compound was pre-diluted (1/50 in culture medium) and 5 μl pre-diluted compound was added to the wells. Following 4-day incubation, 10 μl of the Alamar Blue solution was added to each well and the cells were further incubated for 4 hours (HCT116) or 24 hours (PC-3) at 37° C. The fluorescence intensity was measured for each well on a Fluorescence plate reader (Fluoroskan, Labsystems, 540 nm excitation and 590 nm emission)
(§5) The antiproliferative activity was calculated as percentage of remaining viable cells in treated versus control (untreated cells) conditions. Within an experiment, the result for each experimental condition is the mean of 3 replicate wells. When appropriate, the experiments were repeated to establish full concentration-response curves. When appropriate, IC50-values (concentration of the drug, needed to reduce cell growth to 50% of the control) were computed using probit analysis for graded data (Finney, D. J., Probit Analyses, 2nd Ed. Chapter 10, Graded Responses, Cambridge University Press, Cambridge 1962). Herein the effects of test compounds are expressed as pIC50 (the negative log value of the IC50-value) (see Table 3).

[4] = tested on: Human colon carcinoma HCT116 cells; assay: Anti-proliferative effect, Alamar Blue assay, HCT116; type: cell-based; settings: 4-day incubation; for IC50: Homo sapiens, HCT-116, 96 h, read-out: HCT116 antiproliferative activity pIC50 (converted)
Description: Human colon carcinoma HCT116 cells obtained from the ATCC were cultured in McCoy's 5A medium supplemented with 2 mM L-Glutamine, 50 μg/ml gentamicin and 10% heat inactivated fetal calf serum.
as §1, §2, §3, §4, §5

SMILES	IC50 [3] [nM]	IC50 [4] [nM]	PC3 antiproliferative activity pIC50 [3]	HCT116 antiproliferative activity pIC50 [4]	tubulin polymerization score [1]	Eb1 pLAC [2]
CCN1Cc2ccc(C(C#N)(CC)Cc3cccc(C#N)c3)cc2NC1=O (stereo not shown) [Compound 2]	316	316	–	–	3 (a compound showing more than 50% inhibition at 5 μM is reported as score 3)	7
CCN1Cc2ccc(C(C)(C#N)Cc3cccc(C#N)c3)cc2NC1=O (stereo not shown) [Compound 17]	–	–	6.6	6.8	3 (a compound showing more than 50% inhibition at 5 μM is reported as score 3)	–
CCN1Cc2ccc(C(C)(C#N)Cc3cc(OC)cc(OC)c3)cc2NC1=O (stereo not shown) [Compound 19]	–	–	6.2	6.4	3 (a compound showing more than 50% inhibition at 5 μM is reported as score 3)	6.5
CCN1Cc2ccc(C(C)(C#N)Cc3ccccc3)cc2NC1=O (stereo not shown) [Compound 16]	–	–	5.9	6.2	2	6
CCN1Cc2ccc(C(C)(C#N)Cc3cccc(C#CCO)c3)cc2NC1=O (stereo not shown) [Compound 11]	398	316	–	–	3 (a compound showing more than 50% inhibition at 5 μM is reported as score 3)	7
CCN1Cc2ccc([C@@](C)(C#N)[C@@H]3CCc4c(Cl)ccnc43)cc2NC1=O [Compound 14]	1260	501	–	–	–	–
CCN1Cc2ccc(C(C)(C#N)CNCc3ccc(C#N)cc3)cc2NC1=O (stereo not shown) [Compound 12]	1260	631	–	–	–	–
CCN1Cc2ccc(C(C)(C#N)CCOc3ccc(C#N)cc3)cc2NC1=O (stereo not shown) [Compound 15]	200	100	–	–	–	–
CCN1Cc2ccc(C(C)(C#N)Cc3nc(OC)cc(OC)n3)cc2NC1=O (stereo not shown) [Compound 18]	–	–	6.6	6.6	3 (a compound showing more than 50% inhibition at 5 μM is reported as score 3)	–

The next lines start with results.

IC50 [3] [nM]	IC50 [4] [nM]	PC3 antiproliferative activity pIC50 [3]	HCT116 antiproliferative activity pIC50 [4]	SMILES	tubulin polymerization score [1]	Eb1 pLAC [2]
–	–	6.6	6.7	CCN1Cc2ccc(C(C)(C#N)Cc3cccc(C#CCOC)c3)cc2NC1=O (stereo not shown) [Compound 36]	3 (a compound showing more than 50% inhibition at 5 μM is reported as score 3)	7
–	–	6.3	6.6	CCN1Cc2cc(F)c(C(C)(C#N)Cc3cccc(C#N)c3)cc2NC1=O (stereo not shown) [Compound 26]	3 (a compound showing more than 50% inhibition at 5 μM is reported as score 3)	6.5
–	–	6.0	6.4	CCN1Cc2ccc(C(C#N)(CC)Cc3nc(OC)cc(OC)n3)cc2NC1=O (stereo not shown) [Compound 30]	3 (a compound showing more than 50% inhibition at 5 μM is reported as score 3)	6.5
–	–	6.2	6.4	CCN1Cc2ccc(C(C)(C#N)Cc3cc(Cl)cc(Cl)c3)cc2NC1=O (stereo not shown) [Compound 20]	–	6.5
–	–	6.1	6.3	CCN1Cc2ccc(C(C)(C#N)Cc3cccc(C#N)n3)cc2NC1=O (stereo not shown) [Compound 21]	2	5.5
–	–	6.3	6.3	CCN1Cc2cc(F)c(C(C)(C#N)Cc3nc(OC)cc(OC)n3)cc2NC1=O (stereo not shown) [Compound 25]	3 (a compound showing more than 50% inhibition at 5 μM is reported as score 3)	6.5
–	–	6.6	6.8	CCN1Cc2ccc(C(C)(C#N)Cc3cccc(F)c3)cc2NC1=O (stereo not shown) [Compound 24]	–	–
–	–	6.5	6.8	CN1Cc2ccc(C(C)(C#N)Cc3cccc(C#N)c3)cc2NC1=O (stereo not shown) [Compound 28]	3 (a compound showing more than 50% inhibition at 5 μM is reported as score 3)	6.5
–	–	6.4	6.7	CCN1Cc2ccc(C(C)(C#N)Cc3cccc(C)c3)cc2NC1=O (stereo not shown) [Compound 22]	–	–
–	–	6.3	6.4	CCN1Cc2ccc(C(C)(C#N)Cc3nc4ccccc4s3)cc2NC1=O (stereo not shown) [Compound 23]	–	–
